Source: US9096852B2, “Inhibitors of micro-RNAs for use for preventing and/or attenuating skin ageing and/or for hydrating skin” (CHANEL PARFUMS BEAUTE, priority 2010, dated 2015)
“Also recorded” adds a separate entry of the source.

Legend:
[1] = system: Mir 181a; assay: Screening of active compounds: miR-181a expression by real time PCR in keratinocytes; assay type: cell-based, human; conditions: 48 hours
Description: Neonatal Human Primary Epidermal Keratinocytes (Hekn, Cascade, Invitrogen, Carlsbad, Calif., USA) were cultured in EpiLife medium added with HKGS growth supplements (Cascade). Cells were constantly kept subconfluent in order to avoid triggering of a differentiation process. Cells were passaged usually once a week, at each passage the harvested cells number and seeded cell number were recorded in order to calculate the population doublings occurring between passages and the population doubling time. At passage 2 300.000 keratinocytes were plated in 60 mm dishes. The day after the cells were treated with the compounds at the indicated concentration for 48 hours without changing of the media. Cells were collected by scraping in medium. Cells were centrifuged at 800 g for 5 min and RNA was extracted. Total RNA from cells was isolated using […] Isolation Kit (Ambion) by following the manufacturer's protocol for total RNA extraction. Total RNA was quantified using a NanoDrop Spectophotometer (Thermo Scientific, Delaware, USA) and RNA quality was controlled on an agarose gel. […] The expression of each gene and miR was defined from the threshold cycle (Ct), and relative expression levels were calculated by using the 2-ΔΔCt method after normalization with reference to the expression of the housekeeping gene U18. […]

[2] = system: Mir 130a; assay: Screening of active compounds: miR-130a expression by real time PCR in keratinocytes; assay type: cell-based, human; conditions: 48 hours
Description: (§1) Neonatal Human Primary Epidermal Keratinocytes (Hekn, Cascade, Invitrogen, Carlsbad, Calif., USA) were cultured in EpiLife medium added with HKGS growth supplements (Cascade). Cells were constantly kept subconfluent in order to avoid triggering of a differentiation process. Cells were passaged usually once a week, at each passage the harvested cells number and seeded cell number were recorded in order to calculate the population doublings occurring between passages and the population doubling time. At passage 2 300.000 keratinocytes were plated in 60 mm dishes. The day after the cells were treated with the compounds at the indicated concentration for 48 hours without changing of the media. Cells were collected by scraping in medium. Cells were centrifuged at 800 g for 5 min and RNA was extracted.
Total RNA from cells was isolated using mirVana mirRNA Isolation Kit (Ambion) by following the manufacturer's protocol for total RNA extraction. Total RNA was quantified using a NanoDrop Spectophotometer (Thermo Scientific, Delaware, USA) and RNA quality was controlled on an agarose gel. For microRNA detection, RNA was reverse transcribed using TaqMan MicroRNA Reverse Transcription kit and qRT-PCR was performed with TaqMan universal master mix (Applied Biosystem) and specific primers for miR-130a, -138, -181a and -191. U18 was used as an internal control (Applied Biosystem). The expression of each gene and miR was defined from the threshold cycle (Ct), and relative expression levels were calculated by using the 2-ΔΔCt method after normalization with reference to the expression of the housekeeping gene U18.
The following compounds were tested according to the process of the invention, and the following results were obtained: […]

[3] = system: Mir 191; assay: Screening of active compounds: miR-191 expression by real time PCR in keratinocytes; assay type: cell-based, human; conditions: 48 hours, compound at 6. 10-5%
Description: as §1
Total RNA from cells was isolated using mirVana mirRNA Isolation Kit (Ambion) by following the manufacturer's protocol for total RNA extraction. Total RNA was quantified using a NanoDrop Spectophotometer (Thermo Scientific, Delaware, USA) and RNA quality was controlled on an agarose gel. […] The expression of each gene and miR was defined from the threshold cycle (Ct), and relative expression levels were calculated by using the 2-ΔΔCt method after normalization with reference to the expression of the housekeeping gene U18. […]

[4] = system: SirT1 protein; assay: Western blot of SirT1 in transfected human keratinocytes; assay type: cell-based; conditions: versus scrambled sequence (Ctrl)
Description: Human primary keratinocytes were cultured in EpiLife medium with HKGS growth supplements (Cascade) and treated with CaCl2 1.2 mM in order to induce the differentiation process. Differentiated cells were harvested after 7 days of treatment for microRNA levels analysis. Human primary keratinocytes were transfected with human pre-miR-138, anti-miR-138 and Cy3-labeled negative control (Ambion, Texas, USA) using the SiPORT neoFX transfection agent (Ambion) according to manufacturer protocols. 16 hrs after transfection, the medium was removed and replaced with fresh medium.
(§2) Total cell extracts were resolved on a SDS polyacrylamide gel, blotted on a Hybond P PVDF membrane (G&E Healthcare, UK). Membranes were blocked with PBST 5% non fat dry milk, incubated with primary antibodies for 2 h at room temperature, washed and hybridized for 1 h at room temperature using the appropriate horseradish peroxidase-conjugated secondary antibody (rabbit and mouse, BioRad, Hercules, Calif., USA). Detection was performed with the ECL chemiluminescence kit (Perkin Elmer, Waltham, Mass., USA).
anti-Sirt-1 (Abcam, Cambridge, United Kingdom; 1/500 dilution), anti-β actin (Sigma, St Louis, Minn., USA; 1/5000 dilution), were used.
The human primary keratinocytes described in Example 1 are used in this example. […]

[5] = system: proliferating keratinocytes; assay: Proliferation by BrdU incorporation (Click-iT EdU flow cytometry) after miR over-expression; assay type: cell-based; conditions: over-expression in proliferating human primary keratinocytes
Description: (§3) The human primary keratinocytes described in Example 1 are used in this example. Human primary keratinocytes were cultured in EpiLife medium with HKGS growth supplements (Cascade). […] 16 hrs after transfection, the medium was removed and replaced with fresh medium.
Methods used to evaluate cell proliferation are generally based on incorporation of bromodeoxyuridine (BrdU) during DNA synthesis. The Click-iT™ EdU flow cytometry assay kit is a novel alternative to BrdU assay (Molecular Probes, Eugene, Oreg., USA). […] Briefly, cells were incubated with EdU for 4 hrs. After incubation, samples were fixed, permeabilized and stained according to the manufacturer's protocol. Cell cycle was analysed using a FACSCalibur flow cytometer (BD Biosciences, San Jose, Calif., USA). Fifteen thousand events were evaluated using the Cell Quest (BD) and Modfit LT (Verity Software; BD) programs.

[6] = system: proliferating keratinocytes; assay: Senescence-associated β-galactosidase staining after miR over-expression; assay type: cell-based; conditions: over-expression in proliferating human primary keratinocytes
Description: as §3
Cells were plated in 6-well culture plates, washed with PBS, and fixed with 2% formaldehyde/0.2% glutaraldehyde in PBS for 5 minutes. After another washing step with PBS, cells were incubated with β-galactosidase staining solution (150 mmol/L NaCl, 2 mmol/L MgCl2, 5 mmol/L potassium ferricyanide, 5 mmol/L potassium ferrocyanide, 40 mmol/L citric acid, 12 mmol/L sodium phosphate, pH 6.0, containing 1 mg/mL 5-bromo-4-chloro-3-indolyl-β-Dgalactoside [X-gal]) for 24 hours at 37° C. The reaction was stopped by replacing the staining solution with 70% glycerol.

[7] = system: Sirt-1 3′UTR wt; assay: Luciferase reporter assay, Sirt-1 3′UTR wt, HEK 293E cells; assay type: cell-based, human; conditions: Sirt-1 3′UTR wt reporter, 12 pmol pre-miR, 24 hours after transfection
Description: Human Sirt-1 3′UTR was amplified by PCR from the first nucleotide after stop codon to the last nucleotide before polyadenylation signal from human genomic DNA using the following primers:
The 1940 bp fragment (i.e. pSirT1 3′UTR wt), after SpeI restriction, was ligated to a compatible XbaI linearized pGL3 Control vector (Promega, Madison, Wis., USA).
(§4) 2×10^5 HEK 293E cells were seeded in 12 well dishes 24 hours before transfection. Cells were transfected using Lipofectamine 2000 (Invitrogen) with 100 ng of pGL3 vectors (i.e. with Sirt-1 3′UTR wt or Sirt-1 3′UTR miR-138 del), 12 pmol of pre-miR-138 or pre-miR scramble sequence (Ambion), and 10 ng of Renilla luciferase pRL-CMV vector. Luciferase activities of cellular extracts were measured 24 hours after transfection, by using a Dual Luciferase Reporter Assay System (Promega); light emission was measured over 10 seconds using an OPTOCOMP I luminometer. Efficiency of transfection was normalised using Renilla luciferase activity.
2×10^5 HEK 293E cells were seeded in 12 well dishes 24 hours before transfection. […] Luciferase activities of cellular extracts were measured 24 hours after transfection, by using a Dual Luciferase Reporter Assay System (Promega); light emission was measured over 10 seconds using an OPTOCOMP I luminometer. […]

[8] = system: Sirt-1 3′UTR miR-181a del; assay: Luciferase reporter assay, Sirt-1 3′UTR miR-181a del, HEK 293E cells; assay type: cell-based, human; conditions: Sit 3′UTR miR-181a del reporter, 24 hours after transfection
Description: On the other hand, from this wild type sequence, the miR-181a predicted target site (7 bp, UGAAUGU) was deleted by PCR using the following overlapping primers:
Therefore, the SirT1 3′UTR miR-181a del is obtained.
as §4, with “miR-181a” for “miR-138”, “pre-miR-181a” for “pre-miR-138”

[9] = system: CDK6 protein; assay: Western blot of CDK6 in transfected human keratinocytes; assay type: cell-based; conditions: versus scrambled sequence (Ctrl)
Description: The human primary keratinocytes described in Example 1 are used in this example. Human primary keratinocytes were cultured in EpiLife medium with HKGS growth supplements (Cascade) and treated with CaCl2 1.2 mM in order to induce the differentiation process. Differentiated cells were harvested after 7 days of treatment for microRNA levels analysis. Human primary keratinocytes were transfected with human pre-miR-191, anti-miR-191 and Cy3-labeled negative control (Ambion, Texas, USA) using the SiPORT neoFX transfection agent (Ambion) according to manufacturer protocols. 16 hrs after transfection, the medium was removed and replaced with fresh medium.
as §2
Polyclonal anti-CDK-6 (Santa Cruz, sc-177, dilution 1:2000), anti-β actin (Sigma, St Louis, Minn., USA; 1/5000 dilution), were used.

[10] = system: CDK6 3′UTR wt; assay: Luciferase reporter assay, CDK6 3′UTR wt, HEK 293E cells; assay type: cell-based; conditions: CDK6 3′UTR wt reporter, 24 hours after transfection
Description: as §4, with “vectors” for “vectors (i.e. with Sirt-1 3′UTR wt or Sirt-1 3′UTR miR-138 del),”, “pre-miR-191” for “pre-miR-138”

## CCCCC[C@H](O)CC(=O)CCc1ccc(O)c(OC)c1 [Gingerol 6]
[1]; compound at 6. 10-5%
  inhibition of Mir 181a expression: >20 (29%)
[2]; compound at 6. 10-5%
  inhibition of Mir 130a expression: >20 (37%)
[3]
  inhibition of Mir 191 expression: >20 (24%)

## Oc1ccc(C=Cc2cc(O)cc(O)c2)cc1 [Resveratrol]
[1]; compound at 4. 10-4%
  inhibition of Mir 181a expression: >20 (21%)
[2]; compound at 4. 10-4%
  inhibition of Mir 130a expression: >20 (25%)

## COC(=O)C1Cc2cc(OC(C)=O)c(OC(C)=O)cc2N1C(C)=O (centres unmarked) [Tryacetyl-leukodopachrome methyl ester]
[2]; compound at 10-3%
  inhibition of Mir 130a expression: 20 (10-3%)

## pre-miR-181a: human pre-miR-181a (Ambion) transfected to over-express miR-181a (SEQ ID No. 3) [reference compound]
[4]
  SirT1 protein level (Western blot): markedly diminished
[5]; listed as miR181a
  proliferation as evaluated by BrdU incorporation: significantly diminished
[5]; listed as miR-181a
  proliferation as evaluated by BrdU incorporation: strong effect on inhibition of proliferation
[6]; listed as miR-181a
  senescence as evaluated by SA-β-galactosidase staining: sufficient per se to induce senescence; also recorded: significantly increase
[7]
  luciferase activity: 0.648±0.1 fold over control
[8]
  luciferase activity: 0.93±0.09 fold over control

B1: pre-miR-191: human pre-miR-191 (Ambion) transfected to over-express miR-191 (SEQ ID No. 4) (nucleic acid)
chain: CGGCUGGACAGCGGGCAACGGAAUCCCAAAAGCAGCUGUUGUCUCCAGAGCAUUCCAGCUGCGCUUGGAUUUCGUCCCCUGCUCUCCUGCCU
modifications: precursor form, further chemistry not given here
[9]
  CDK6 protein level (Western blot): markedly diminished
[5]; listed as miR191
  proliferation as evaluated by BrdU incorporation: significantly diminished
[5]; listed as miR-191
  proliferation as evaluated by BrdU incorporation: strong effect on inhibition of proliferation
[6]; listed as miR-191
  senescence as evaluated by SA-β-galactosidase staining: significantly increase; also recorded: sufficient per se to induce senescence
[10]
  luciferase activity: 0.78±0.1 fold over control
